Assay results published in patent US20240083900A1, “PYRAZOLO[1,5-A]PYRAZINE DERIVATIVES AS BTK INHIBITORS” (BIOGEN MA INC., priority 2020, published 2024).
Where two headings read alike, the source gives them in different places.

Key:
BTK = BTK (Homo sapiens (Human), UniProt Q06187); assay: In Vitro BTK Kinase Assay: Btk-PolyGAT-LS Assay; format: biochemical; conditions: BTK enzyme 0.25 nM, ATP 10 μM, polyGAT 100 nM, 30 minutes incubation, TRF readout; read-out: IC50
Outline: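 Human BTK activity was measured with final 10 μM ATP and 100 nM polyGAT substrate in pH 7.5 Tris buffer with 10 mM MgCl2, DTT, Triton X-100 and casein.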

[1] = tested on: CD69 expression on CD19+ B cells in human whole blood stimulated with anti-human IgD; assay: In Vitro whole blood CD69 Assay; format: cell-based
[2] = human heparinized whole blood, anti-human IgD stimulation overnight, percentage of CD19+ B cells expressing CD69, flow cytometry, read-out: IC50
[3] = Homo sapiens, B-cell, human heparinized whole blood, anti-human IgD stimulation overnight, percentage of CD19+ B cells expressing CD69, flow cytometry, read-out: IC50

BTK, sequence (Q06187 whole entry): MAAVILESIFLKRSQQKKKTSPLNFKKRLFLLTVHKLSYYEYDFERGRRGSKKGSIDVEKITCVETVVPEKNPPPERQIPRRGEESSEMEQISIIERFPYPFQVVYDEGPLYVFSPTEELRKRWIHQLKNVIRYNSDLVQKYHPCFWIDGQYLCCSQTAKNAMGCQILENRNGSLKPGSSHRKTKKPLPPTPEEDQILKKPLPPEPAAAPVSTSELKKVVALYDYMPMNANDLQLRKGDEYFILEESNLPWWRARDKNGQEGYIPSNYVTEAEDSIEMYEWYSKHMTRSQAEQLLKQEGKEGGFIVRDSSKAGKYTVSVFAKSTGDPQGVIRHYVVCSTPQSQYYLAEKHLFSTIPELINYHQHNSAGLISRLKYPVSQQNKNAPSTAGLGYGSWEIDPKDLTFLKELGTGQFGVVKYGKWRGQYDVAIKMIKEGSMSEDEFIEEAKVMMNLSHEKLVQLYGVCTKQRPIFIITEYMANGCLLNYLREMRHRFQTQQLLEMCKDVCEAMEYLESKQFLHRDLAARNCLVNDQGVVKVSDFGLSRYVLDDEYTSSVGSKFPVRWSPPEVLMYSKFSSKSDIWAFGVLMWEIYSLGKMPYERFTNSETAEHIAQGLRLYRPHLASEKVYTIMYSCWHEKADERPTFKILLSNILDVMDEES

| SMILES | IC50 (BTK) | IC50 [1, 2] | IC50 ([1]; Homo sapiens, B-cell) | IC50 ([1]; Homo sapiens, B-cell, human heparinized whole blood, anti-human IgD stimulation overnight, percentage of CD19+ B cells expressing CD69, flow cytometry) | IC50 [1, 3] |
| --- | --- | --- | --- | --- | --- |
| C=CC(=O)N(C)[C@H]1C[C@@](Oc2nc(-c3cnn(C)c3)cn3nccc23)(C2CC2)C1 [Example 104, N—((1r,3r)-3-cyclopropyl-3-((6-(1-methyl-1H-pyrazol-4-yl)pyrazolo[1,5-a]pyrazin-4-yl)oxy)cyclobutyl)-N-methylacrylamide] | 10 to 1000 nM | 1000 to 10000 nM | – | – | – |
| C=CC(=O)N1CC2(Oc3nc(-c4cnn(C)c4)cn4nccc34)CC1(C)C2 [Example 124, 1-(1-methyl-4-((6-(1-methyl-1H-pyrazol-4-yl)pyrazolo[1,5-a]pyrazin-4-yl)oxy)-2-azabicyclo[2.1.1]hexan-2-yl)prop-2-en-1-one] | 1 to 10 nM | – | 1000 to 10000 nM | – | – |
| C=CC(=O)N(C)[C@H]1C[C@@](C)(Oc2nc(-c3cnn(C)c3)cn3nccc23)[C@H]1C (single isomer, unassigned) [Example 110] | < 1 nM | – | – | < 1000 nM | – |
| C=CC(=O)N(C)[C@@H]1COC[C@H](Oc2nc(-c3cnn(C)c3)cn3nccc23)C1 (racemic) [Example 96, N-methyl-N-((cis)-5-((6-(1-methyl-1H-pyrazol-4-yl)pyrazolo[1,5-a]pyrazin-4-yl)oxy)tetrahydro-2H-pyran-3-yl)acrylamide] | < 1 nM | – | – | – | < 1000 nM |
| C=CC(=O)N1CCO[C@@](C)(COc2nc(-c3cnn(C)c3)cn3nccc23)C1 (single isomer, unassigned) [Example 118, (R) or (S)-1-(2-methyl-2-(((6-(1-methyl-1H-pyrazol-4-yl)pyrazolo[1,5-a]pyrazin-4-yl)oxy)methyl)morpholino)prop-2-en-1-one] | < 1 nM | – | – | – | < 1000 nM |
| C=CC(=O)N1CC(Oc2nc(-c3cnn(C)c3)cn3nccc23)C1 [Example 9, 1-(3-((6-(1-methyl-1H-pyrazol-4-yl)pyrazolo[1,5-a]pyrazin-4-yl)oxy)azetidin-1-yl)prop-2-en-1-one] | 10 to 1000 nM | – | – | – | > 10000 nM |
| C=CC(=O)N1CC[C@]2(C1)C[C@](C)(Oc1nc(-c3cnn(C)c3)cn3nccc13)C2 [Example 212, rac-1-((2s,4r)-2-methyl-2-((6-(1-methyl-1H-pyrazol-4-yl)pyrazolo[1,5-a]pyrazin-4-yl)oxy)-6-azaspiro[3.4]octan-6-yl)prop-2-en-1-one] | 1 to 10 nM | 1000 to 10000 nM | – | – | – |
| C=CC(=O)N(C)[C@H]1C[C@@](C)(Oc2nc(-c3cnn(C)c3)cn3ncc(C4CC4)c23)C1 [Example 229, N-((1s,3s)-3-((3-cyclopropyl-6-(1-methyl-1H-pyrazol-4-yl)pyrazolo[1,5-a]pyrazin-4-yl)oxy)-3-methylcyclobutyl)-N-methylacrylamide] | < 1 nM | – | – | – | < 1000 nM |
| C=CC(=O)N1CCC[C@@H](Oc2nc(-c3cnn(C)c3)cn3ncc(F)c23)CC1 [Example 61, 1-[(4R)-4-[3-fluoro-6-(1-methylpyrazol-4-yl)pyrazolo[1,5-a]pyrazin-4-yl]oxyazepan-1-yl]prop-2-en-1-one] | < 1 nM | – | – | – | < 1000 nM |
| C=CC(=O)N1CCC[C@@H](Nc2nc(-c3cnn(C)c3)cn3nccc23)CC1 (single isomer, unassigned) [Example 160] | < 1 nM | – | – | – | 1000 to 10000 nM |
| C=CC(=O)N(C)[C@H]1C[C@@](C)(Oc2nc(-c3cnn(C)c3)cn3ncc(F)c23)C1 [Example 211, N-((1s,3s)-3-((3-fluoro-6-(1-methyl-1H-pyrazol-4-yl)pyrazolo[1,5-a]pyrazin-4-yl)oxy)-3-methylcyclobutyl)-N-methylacrylamide] | < 1 nM | – | – | – | < 1000 nM |
| C=CC(=O)N1C[C@H]2C[C@@H](C1)[C@H]2COc1nc(-c2cnn(C)c2)cn2nccc12 [Example 128, 1-((1R,5S,6s)-6-(((6-(1-methyl-1H-pyrazol-4-yl)pyrazolo[1,5-a]pyrazin-4-yl)oxy)methyl)-3-azabicyclo[3.1.1]heptan-3-yl)prop-2-en-1-one] | < 1 nM | < 1000 nM | – | – | – |
| C=CC(=O)N(C)CCOc1nc(-c2cnn(C)c2)cn2nccc12 [Example 183, N-methyl-N-(3-((6-(1-methyl-1H-pyrazol-4-yl)pyrazolo[1,5-a]pyrazin-4-yl)oxy)ethyl)acrylamide] | 1 to 10 nM | – | – | – | 1000 to 10000 nM |
| C/C=C\S(=O)(=O)N1CC(Oc2nc(-c3cnn(C)c3)cn3nccc23)C1 [Example 10, (Z)-6-(1-methyl-1H-pyrazol-4-yl)-4-((1-(prop-1-en-1-ylsulfonyl)azetidin-3-yl)oxy)pyrazolo[1,5-a]pyrazine] | 10 to 1000 nM | – | – | – | > 10000 nM |
| C=CC(=O)N(C)[C@@H]1C[C@@](C)(Oc2nc(-c3cnn(C)c3)cn3nccc23)[C@@H]1C (single isomer, unassigned) [Example 107] | 1 to 10 nM | – | – | – | < 1000 nM |
| C=CC(=O)N(CC(F)F)[C@H]1CC[C@@H](Oc2nc(-c3cnn(C)c3)cn3nccc23)C1 [Example 146, N-(2,2-difluoroethyl)-N-((1S,3R)-3-((6-(1-methyl-1H-pyrazol-4-yl)pyrazolo[1,5-a]pyrazin-4-yl)oxy)cyclopentyl)acrylamide] | < 1 nM | – | – | – | < 1000 nM |
| C=CC(=O)N1CCC[C@@H](Oc2cc(-c3cnn(C)c3)cn3nccc23)CC1 [Example 66, 1-[(4R)-4-[6-(1-methylpyrazol-4-yl)pyrazolo[1,5-a]pyridin-4-yl]oxyazepan-1-yl]prop-2-en-1-one] | < 1 nM | – | – | – | < 1000 nM |
| C=CS(=O)(=O)N1CCC[C@@H](Oc2nc(-c3cnn(C)c3)cn3nccc23)C1 [Example 5, (R)-6-(1-methyl-1H-pyrazol-4-yl)-4-((1-(vinylsulfonyl)piperidin-3-yl)oxy)pyrazolo[1,5-a]pyrazine] | < 1 nM | – | – | – | > 10000 nM |
| C=CC(=O)N1CC[C@]2(C1)C[C@@](C)(Oc1nc(-c3cnn(C)c3)cn3nccc13)C2 [Example 213, rac-1-((2r,4s)-2-methyl-2-((6-(1-methyl-1H-pyrazol-4-yl)pyrazolo[1,5-a]pyrazin-4-yl)oxy)-6-azaspiro[3.4]octan-6-yl)prop-2-en-1-one] | 1 to 10 nM | 1000 to 10000 nM | – | – | – |
| C=CC(=O)NCC1CCCCN1c1nc(-c2cnn(C)c2)cn2nccc12 (stereo not drawn) [Example 27, N-[[1-[6-(1-methylpyrazol-4-yl)pyrazolo[1,5-a]pyrazin-4-yl]-2-piperidyl]methyl]prop-2-enamide] | 10 to 1000 nM | – | – | – | 1000 to 10000 nM |
| C#CC(=O)N(C)C1CCCN(c2nc(-c3cnn(C)c3)cn3nccc23)C1 (stereo not drawn) [Example 24, N-methyl-N-[1-[6-(1-methylpyrazol-4-yl)pyrazolo[1,5-a]pyrazin-4-yl]-3-piperidyl]prop-2-ynamide] | 10 to 1000 nM | – | – | – | > 10000 nM |
| CC#CC(=O)N(C)[C@H]1CC[C@H]2C[C@@]2(Oc2nc(-c3cnn(C)c3)cn3nccc23)C1 (single isomer, unassigned) [Example 116] | < 1 nM | – | – | – | < 1000 nM |
| C=CC(=O)N(C)[C@H]1CC[C@@H]1COc1nc(-c2cnn(C)c2)cn2nccc12 (relative stereo) [Example 129, trans-N-methyl-N-(2-(((6-(1-methyl-1H-pyrazol-4-yl)pyrazolo[1,5-a]pyrazin-4-yl)oxy)methyl)cyclobutyl)acrylamide] | 10 to 1000 nM | – | – | – | 1000 to 10000 nM |
| C=CC(=O)N1CC[C@@H]2[C@H](Oc3nc(-c4cnn(C)c4)cn4nccc34)C(C)(C)[C@@H]21 [Example 172, 1-((1R,5S,6S)-7,7-dimethyl-6-((6-(1-methyl-1H-pyrazol-4-yl)pyrazolo[1,5-a]pyrazin-4-yl)oxy)-2-azabicyclo[3.2.0]heptan-2-yl)prop-2-en-1-one] | < 1 nM | – | – | – | 1000 to 10000 nM |
